Like-named read-outs stand apart in the source and are kept apart here.
What was measured:
HIV = experiment: Antiviral cell culture assay (XTT viability of HIV-infected cells); format: cell-based
Excerpt: As noted above, the compounds of formula (I) are useful as HIV protease inhibitors and for preparing HIV protease inhibitors. These compounds may be assayed using two assays: (1) an enzyme inhibition assay, and (2) an antiviral cell culture assay.
In addition, the compounds described in the present application may be tested using an antiviral cell culture assay as described in Weislow, O. S., J. of National Cancer Institute, 81(8), pages 577-586 (Apr. 19, 1989) herein incorporated by reference.
This assay compares the viability of HIV-infected cells in a cell culture medium relative to the viability of such cells in the presence of a test compound. The concentration of test compound necessary to inhibit 90% of the virus is then measured using the viability of the cells as an indicator of viral inhibition. This assay is carried out using cell lines that are sensitive to the lyric effects of HIV infection.
Specifically, this assay utilizes the metabolic reduction of a tetrazolium reagent, 2,3-bis[2-methoxy-4-nitro-5-sulfophenyl]-5-[(phenylamino carbonyl]-2H-tetrazolium hydroxide (XTT). In the presence of a viable cell, the tetrazolium reagent, XTT, ms reduced to provide XTT formazan which may be quantified using colorimetric determination (at 450 nm). The intensity of the chromogenic signal is directly proportional to the concentration of the XTT formazan, thus providing a measure of the quantity of viable cells.
The compounds prepared in Examples 9 and 10, above, were tested using this assay.

HIV-1 protease = biological target: T1, HIV-1 protease (Human immunodeficiency virus type 1 group M subtype B, UniProt P04585); experiment: biochemical; settings: for IC50: read-out: Inhibitory Activity, Fluorescence Assay IC50 (converted)
T1 construct: HIV-1 Protease
Description: These compounds may be assayed using two assays: (1) an enzyme inhibition assay, and (2) an antiviral cell culture assay.
This assay is described in detail in published European Patent Application (EPA) 0 526 009, herein incorporated by reference. Using this assay, a number of the compounds, prepared above, were assayed for HIV protease inhibitory activity.
The assay is unable to test compounds at less than a concentration of 0.16 ng/mL.

[1] = Human immunodeficiency virus 1, concentration that inhibits 90%
[2] = concentration that inhibits 50% of the enzyme, assay limit 0.16 ng/mL

SMILES	IC90 (HIV; [1]) [nM]	IC50 (HIV-1 protease; [2]) [nM]	IC50 (HIV-1 protease) [nM]	IC90 (HIV; concentration that inhibits 90%) [nM]	inhibition at 0.00016 µg/mL (HIV-1 protease; at 0.16 ng/mL, read-out: % inhibition at stated concentration (IC74 (0.16))) [%]
CC(C)(C)NC(=O)[C@@H]1C[C@@H]2SCC[C@@H]2CN1C[C@@H](O)[C@H](Cc1ccccc1)NC(=O)OCc1ccccc1 [Example 5, N-t-Butyl-octahydro-5[2R-hydroxy-4-phenyl-3S-N(benzyloxycarbonyl)amino-butyl]-(3aR,7aS)-thieno[3,2-c]pyridine-(6S)-carboxamide]	2000	6.3	–	–	–
CC(C)(C)NC(=O)[C@@H]1C[C@@H]2SCC[C@@H]2CN1C[C@@H](O)[C@H](CSc1ccccc1)NC(=O)OCc1ccccc1 [Example 7, N-t-Butyl-octahydro-5[2R-hydroxy-4-thiophenyl-3R-N(benzyloxycarbonyl)amino-butyl]-(3aR,7aS)-thieno[3,2-c] pyridine-(6S)-carboxamide]	–	–	3.32	–	–
Cc1c(O)cccc1C(=O)N[C@@H](CSc1ccccc1)[C@H](O)CN1C[C@H]2CCS[C@H]2C[C@H]1C(=O)NC(C)(C)C [Example 9, N-t-Butyl-octahydro-5[2R-hydroxy-3R-N(2'-methyl-3'-hydroxyphenylcarbonyl)amino-4-phenylthio-butyl]-(3aR,7aS)-thieno[3,2-c] pyridine-(6S)-carboxamide]	17	0.315	–	–	–
Cc1c(O)cccc1C(=O)N[C@@H](CSc1ccccc1)[C@H](O)CN1C[C@H]2CCS[C@H]2C[C@H]1C(=O)NC(C)(C)C [Example 10, N-t-Butyl-octahydro-5[2R-hydroxy-3R-N(2'-methyl-3'-hydroxyphenylcarbonyl)amino-4-phenylthio-butyl]-(3aR,7aS)-thieno[3,2-c] pyridine-(6S)-carboxamide methanesulfonate]	–	–	–	10	74

Reference: patent publication US5734057A, “HIV protease inhibitors and intermediates” (Eli Lilly and Company, priority 1996, dated 1998)
